Where a name gives a salt, the structure may show the parent alone.
Target: T1, recombinant human TGR5 (Homo sapiens, UniProt Q8TDU6)
T1 construct: expressed in transfected cells
T1 sequence (Q8TDU6 1-330): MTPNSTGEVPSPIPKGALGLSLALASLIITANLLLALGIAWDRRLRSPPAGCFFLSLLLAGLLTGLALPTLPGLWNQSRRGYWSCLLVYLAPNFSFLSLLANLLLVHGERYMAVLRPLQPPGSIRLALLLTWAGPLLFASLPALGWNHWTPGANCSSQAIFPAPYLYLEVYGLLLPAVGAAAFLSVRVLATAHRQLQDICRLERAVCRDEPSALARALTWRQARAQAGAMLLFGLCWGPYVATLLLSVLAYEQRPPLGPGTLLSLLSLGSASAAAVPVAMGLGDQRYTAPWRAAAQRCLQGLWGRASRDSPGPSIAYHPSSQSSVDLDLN
Test: cAMP assay (cAMP accumulation, HTRF) in CHOK1 cells stably expressing TGR5
Assay type: cell-based
Details: CHOK1 cells stably expressing human TGR5, 30 minutes at RT, 1% DMSO
Procedure, shortened: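 Agonist-induced cAMP accumulation: stable TGR5-CHOK1 cells treated 30 min at RT with compound (1% DMSO) plus 0.1 mM IBMX. HTRF ratio converted to nM cAMP via standard curve; EC50 from four-parameter logistic fit, midpoint between baseline and maximum.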

Structure (SMILES)	EC50 [nM]
Cc1cccc(OCCCC(=O)N2CCCc3c(-c4cnn(C(C)c5cccc(NC(=O)NCS(=O)(=O)O)c5)c4)cccc32)c1C (stereo not shown) [Example 81, (3-(3-(1-(4-(1-(4-(2,3-Dimethylphenoxy)butanoyl)-1,2,3,4-tetrahydroquinolin-5-yl)-1H-pyrazol-1-yl)ethyl)phenyl)ureido)methanesulfonic acid]	670
Cc1cccc(OCCCC(=O)N2CCCc3c(-c4cnn(C(C)c5cccc(NC(=O)NCCS(=O)(=O)O)c5)c4)cccc32)c1C (stereo not shown) [Example 82, 2-(3-(3-(1-(4-(1-(4-(2,3-Dimethylphenoxy)butanoyl)-1,2,3,4-tetrahydroquinolin-5-yl)-1H-pyrazol-1-yl)ethyl)phenyl)ureido)ethanesulfonic acid]	646
Cc1cccc(OCCCC(=O)N2CCCOc3c(-c4cnn(Cc5c(F)cc(C(=O)O)cc5Cl)c4)cccc32)c1C [Example 392, 3-Chloro-4-((4-(5-(4-(2,3-dimethylphenoxy)butanoyl)-2,3,4,5-tetrahydrobcnzo[b] [1,4]oxazepin-9-yl)-1H-pyrazol-1-yl)methyl)-5-fluorobenzoic acid]	189
Cc1c(Cl)cccc1OCCCC(=O)N1CCSc2c(-c3cnn(Cc4cccc(C(=O)N[C@@H](CC[N+](C)(C)C)C(=O)O)c4)c3)cccc21 [Example 617, (S)-3-Carboxy-3-(3-((4-(4-(4-(3-chloro-2-methylphenoxy)butanoyl)-3,4-dihydro-2H-benzo[b][1,4]thiazin-8-yl)-1H-pyrazol-1-yl)methyl)benzamido)-N,N,N-trimethylpropan-1-aminium, TFA salt]	175
Cc1c(Cl)cccc1OCCCC(=O)N1CCSc2c(-c3cnn(Cc4cccc(C(=O)N[C@@H](CC(N)=O)C(=O)O)c4)c3)cccc21 [Example 614, (S)-4-Amino-2-(3-((4-(4-(4-(3-chloro-2-methylphenoxy)butanoyl)-3,4-dihydro-2H-benzo[b][1,4]thiazin-8-yl)-1H-pyrazol-1-yl)methyl)benzamido)-4-oxobutanoic acid]	46
Cc1cccc(OCCCC(=O)N2CCCc3c(-c4cccc(COC(=O)NC(CCS)C(=O)O)c4)cccc32)c1C (stereo not shown) [Example 289, 2-((3-(1-(4-(2,3-Dimethylphenoxy)butanoyl)-1,2,3,4-tetrahydroquinolin-5-yl)benzyloxy)carbonylamino)-4-mercaptobutanoic acid]	2810
Cc1c(Cl)cccc1OCCOC(=O)N1CCSc2c(-c3cnn(Cc4cccc(OCC(=O)O)c4)c3)cccc21 [Example 375, 2-(3-((4-(4-((2-(3-Chloro-2-methylphenoxy)ethoxy)carbonyl)-3,4-dihydro-2H-benzo[b][1,4]thiazin-8-yl)-1H-pyrazol-1-yl)methyl)phenoxy)acetic acid]	188
Cc1cccc(OCCCC(=O)N2CCCc3c(-c4cccc(C(=O)NCC(=O)O)c4)cccc32)c1C [Example 138, 2-(3-(1-(4-(2,3-Dimethylphenoxy)butanoyl)-1,2,3,4-tetrahydroquinolin-5-yl)benzamido)acetic acid]	3460
Cc1cccc(OCCCC(=O)N(C)c2cccc(-c3cnn(Cc4cccc(C(=O)NCCC(=O)O)c4)c3)c2)c1C [Example 552, 3-(3-((4-(3-(4-(2,3-Dimethylphenoxy)-N-methylbutanamido)phenyl)-1H-pyrazol-1-yl)methyl)benzamido)propanoic acid]	2380
COC(=O)c1ccc(Cl)c(Cn2cc(-c3cccc4c3SCCN4C(=O)OCCOc3cccc(Cl)c3C)cn2)c1 [Example 367, 2-(3-Chloro-2-methylphenoxy)ethyl 8-(l-(2-chloro-5-(methoxycarbonyl)benzyl)-1H-pyrazol-4-yl)-2H-benzo[b][1,4]thiazine-4(3H)-carboxylate]	186
Cc1cccc(OCCCC(=O)N2CCCc3c(-c4cccc(COC(=O)N[C@@H](C)CC(=O)O)c4)cccc32)c1C [Example 302, (S)-3-((3-(1-(4-(2,3-Dimethylphenoxy)butanoyl)-l,2,3,4-tetrahydroquinolin-5-yl)benzyloxy)carbonylamino) butanoic acid]	593
Cc1cccc(OCCCC(=O)N2CCCc3c(-c4cnn(CCNC(=O)NCC(=O)O)c4)cccc32)c1C [Example 110G, 2-(3-(2-(4-(1-(4-(2,3-Dimethylphenoxy)butanoyl)-1,2,3,4-tetrahydroquinolin-5-yl)-1H-pyrazol-1-yl)ethyl)ureido)acetic acid]	3140
Cc1c(Cl)cccc1OCCCC(=O)N1CCCCc2c(-c3cnn(Cc4cccc(C(=O)NCCC(=O)O)c4)c3)cccc21 [Example 730, 3-(3-((4-(1-(4-(3-Chloro-2-methylphenoxy)butanoyl)-2,3,4,5-tetrahydro-1H-benzo[b]azepin-6-yl)-1H-pyrazol-1-yl)methyl)benzamido)propanoic acid]	188
Cc1cccc(OCCCC(=O)N2CCSc3c(-c4cnn(Cc5c(F)cc(C(=O)NCS(=O)(=O)O)cc5Cl)c4)cccc32)c1C [Example 578, (3-Chloro-4-((4-(4-(4-(2,3-dimethylphenoxy)butanoyl)-3,4-dihydro-2H-benzo[b][1,4]thiazin-8-yl)-1H-pyrazol-1-yl)methyl)-5-fluorobenzamido) methanesulfonic acid]	45
Cc1cccc(OCCCC(=O)N2CCCc3c(-c4nnn(Cc5cccc(C(=O)O)c5)n4)cccc32)c1C [Example 112, 3-((5-(1-(4-(2,3-Dimethylphenoxy)butanoyl)-1,2,3,4-tetrahydroquinolin-5-yl)-2H-tetrazol-2-yl)methyl)benzoic acid]	145
Cc1cccc(OCCCC(=O)N2CCCc3c(-c4cnn(C(C)(C)C(=O)NCCS(=O)(=O)O)c4)cccc32)c1C [Example 146Y, 2-(2-(4-(1-(4-(2,3-Dimethylphenoxy)butanoyl)-1,2,3,4-tetrahydroquinolin-5-yl)-1H-pyrazol-1-yl)-2-methylpropanamido)ethanesulfonic acid]	2860
Cc1c(Cl)cccc1OCCOC(=O)N1C[C@@H]2C[C@@H]2c2c(-c3cnn(Cc4cccc(C(C)(C)O)c4)c3)cccc21 [Example 434, (1aR,7bS)-2-(3-Chloro-2-methylphenoxy)ethyl 7-(1-(3-(2-hydroxypropan-2-yl)benzyl)-1H-pyrazol-4-yl)-1a,2-dihydro-1H-cyclopropa [c]quinoline-3(7bH)-carboxylate]	183
Cc1c(Cl)cccc1OCCCC(=O)N1CCCOc2c(-c3cnn(Cc4c(F)cc(C(=O)NCS(=O)(=O)O)cc4Cl)c3)cccc21 [Example 702, (3-Chloro-4-((4-(5-(4-(3-chloro-2-methylphenoxy)butanoyl)-2,3,4,5-tetrahydrobenzo[b][1,4]oxazepin-9-yl)-1H-pyrazol-1-yl)methyl)-5-fluorobenzamido)methanesulfonic acid]	46
O=C(O)c1cccc(Cn2cc(-c3cccc4c3C3CC3CN4C(=O)OCCOc3c(F)cccc3F)cn2)c1 (stereo not shown) [Example 32A, 3-((4-(3-((2-(2,6-Difluorophenoxy)ethoxy)carbonyl)-1a,2,3,7b-tetrahydro-1H-cyclopropa[c]quinolin-7-yl)-1H-pyrazol-1-yl)methyl)benzoic acid]	3400
Cc1cccc(OCCCC(=O)N2CCCc3c(-c4cccc(COC(=O)NC(CP(=O)(O)O)C(=O)O)c4)cccc32)c1C (stereo not shown) [Example 319, 2-((3-(1-(4-(2,3-Dimethylphenoxy)butanoyl)-1,2,3,4-tetrahydroquinolin-5-yl)benzyloxy)carbonylamino)-3-phosphonopropanoic acid]	3820
Cc1c(Cl)cccc1OC(C)(C)COC(=O)N1CCCOc2c(-c3cnn(Cc4c(F)cc(C(=O)NCCS(=O)(=O)O)cc4Cl)c3)cccc21 [Example 807, 2-(3-Chloro-4-((4-(5-((2-(3-chloro-2-methylphenoxy)-2-methylpropoxy)carbonyl)-2,3,4,5-tetrahydrobenzo[b][1,4]oxazepin-9-yl)-1H-pyrazol-1-yl)methyl)-5-fluorobenzamido)ethanesulfonic acid]	1330
Cc1cccc(OCCCC(=O)N2CCCc3c(-c4cnn(Cc5cccc(N(C)C(=O)N(C)CC[N+](C)(C)C)c5)c4)cccc32)c1C [Example 472, 2-(3-(3-((4-(1-(4-(2,3-Dimethylphenoxy)butanoyl)-1,2,3,4-tetrahydroquinolin-5-yl)-1H-pyrazol-1-yl)methyl)phenyl)-1,3-dimethylureido)-N,N,N-trimethylethanaminium, TFA salt]	1840
COC(=O)c1ccc(O)c(Cn2cc(-c3cccc4c3[C@H]3C[C@H]3CN4C(=O)OCCOc3cccc(Cl)c3C)cn2)c1 [Example 447, (1aR,7bS)-2-(3-Chloro-2-methylphenoxy)ethyl 7-(1-(2-hydroxy-5-(methoxycarbonyl)benzyl)-1H-pyrazol-4-yl)-1a,2-dihydro-1H-cyclopropa[c] quinoline-3(7bH)-carboxylate]	1590
Cc1cccc(OCCCC(=O)N2C[C@@H]3C[C@@H]3c3c(-c4cnn(Cc5cccc(C(=O)NCS(=O)(=O)O)c5)c4)cccc32)c1C (single isomer, unassigned) [Example 238]	59
Cc1cccc(OCCCC(=O)N2CC3CC3c3c(-c4cnn(Cc5c(F)cc(C(=O)NCCC(=O)O)cc5Cl)c4)cccc32)c1C (stereo not shown) [Example 69E, 3-(3-Chloro-4-((4-(3-(4-(2,3-dimethylphenoxy)butanoyl)-1a,2,3,7b-tetrahydro-1H-cyclopropa[c]quinolin-7-yl)-1H-pyrazol-1-yl)methyl)-5-fluorobenzamido)propanoic acid]	45
